Results as given in patent US9745325B2, “Fused heterocyclic compound” (Takeda Pharmaceutical Company Limited, priority 2014, dated 2017).

Columns and labels:
[1] = biological target: T1, CDK8/CycC (Homo sapiens, UniProt P49336); assay: CDK8 inhibitory activity (Kinase Tracer-236 / Eu-anti-GST fluorescence assay); format: binding; set-up: Percent inhibition of CDK8 activity (%): concentration or dose not given beside the values; details: test compound concentration given as '1 1.1.1\4' [sic]
T1 construct: purchased Carna Biosciences
Outline: (§1)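 Tracer-displacement TR-FRET binding assay: compound with kinase, Eu-cryptate anti-GST antibody and 60 nM Kinase Tracer-236 (pre-dilution level), 1 h at room temperature; ex 320 nm, em 615/665 nm. Percent inhibition is relative to no-compound control and a 10 μM control-compound blank.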

[2] = system: human multiple myeloma RPMI8226 cells; assay: Inhibitory activity against human multiple myeloma RPMI8226 cell growth (CellTiter-Glo); format: cell-based; details: 1 μM test compound, cultured for 8 days; for inhibition at 1 µM: Homo sapiens, RPMI-8226, 192 h, read-out: Percent inhibition of RPMI8226 cell growth (%)
Outline: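 RPMI8226 cells (300/well) cultured 1 day at 37 °C, 5% CO2, then given compound at 1 μM for 8 days. ATP luminescence (CellTiter-Glo) read; percent inhibition relative to 0.1% DMSO wells.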

[3] = biological target: T2, CDC2L6/CycC (CDK19) (Homo sapiens, UniProt Q9BWU1); assay: CDK19 inhibitory activity (Kinase Tracer-236 / Eu-anti-GST fluorescence assay); format: binding; set-up: Percent inhibition of CDK19 activity (%): concentration or dose not given beside the values; details: test compound concentration given as '1 1.1.1\4' [sic]
T2 construct: purchased Carna Biosciences Inc
Outline: as §1

[4] = system: SW480 human colorectal cancer cells; assay: Antitumor efficacy in mice bearing SW480 human colorectal cancer cells; format: in vivo, BALB/c female nude mice; details: oral, 14 days
Procedure: The compound of the present invention was evaluated for its antitumor efficacy in mice bearing cancer derived from SW480 human colorectal cancer cells by the following method.
SW480 human colorectal cancer cells were transplanted into 6- to 7-week-old BALB/c female nude mice (CLEA Japan) by subcutaneous injection of 2.0×10^6 cells per mouse. At 7 to 14 days after the transplantation, the size of the engrafted tumor was measured, and the tumor volume was calculated according to the following formula. Tumor volume=major axis×minor axis×minor axis×(½)
Test subjects having an engrafted tumor with a tumor volume of approximately 100 mm^3 were selected and used in the experiment (6 subjects per group). A suspension of each test compound in a 0.5% methylcellulose solution (Wako Pure Chemical Industries) was orally administered to the mice for 14 days at the dose (mg/kg, indicating the amount per dose) and the number of doses shown in Table 4. On the day before the start of the administration and the day before the completion of the administration, the tumor size was measured, and the tumor volume was calculated.
Percent tumor growth (T/C (%)) of the test compound administration group relative to the control administration group was calculated according to the following formula. T/C (%)=(tumor volume of the test compound administration group after the completion of the administration−tumor volume of the test compound administration group at the day before the start of the administration)/(tumor volume of the control administration group after the completion of the administration−tumor volume of the control administration group at the day before the start of the administration))×100

T2 sequence (Q9BWU1 whole entry): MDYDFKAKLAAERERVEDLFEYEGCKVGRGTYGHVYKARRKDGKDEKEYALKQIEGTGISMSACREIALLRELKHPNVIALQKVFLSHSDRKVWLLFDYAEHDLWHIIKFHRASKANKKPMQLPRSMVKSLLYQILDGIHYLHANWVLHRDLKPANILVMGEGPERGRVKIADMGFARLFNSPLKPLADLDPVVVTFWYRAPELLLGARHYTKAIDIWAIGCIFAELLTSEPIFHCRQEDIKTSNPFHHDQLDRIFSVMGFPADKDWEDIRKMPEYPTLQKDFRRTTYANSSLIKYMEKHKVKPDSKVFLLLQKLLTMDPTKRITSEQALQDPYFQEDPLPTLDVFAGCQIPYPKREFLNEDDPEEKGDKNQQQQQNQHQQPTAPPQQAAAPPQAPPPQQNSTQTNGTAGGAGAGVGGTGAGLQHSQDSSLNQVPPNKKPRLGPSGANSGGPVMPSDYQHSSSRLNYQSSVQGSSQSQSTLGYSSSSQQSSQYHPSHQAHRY
T2 sequence (P24863 whole entry partner): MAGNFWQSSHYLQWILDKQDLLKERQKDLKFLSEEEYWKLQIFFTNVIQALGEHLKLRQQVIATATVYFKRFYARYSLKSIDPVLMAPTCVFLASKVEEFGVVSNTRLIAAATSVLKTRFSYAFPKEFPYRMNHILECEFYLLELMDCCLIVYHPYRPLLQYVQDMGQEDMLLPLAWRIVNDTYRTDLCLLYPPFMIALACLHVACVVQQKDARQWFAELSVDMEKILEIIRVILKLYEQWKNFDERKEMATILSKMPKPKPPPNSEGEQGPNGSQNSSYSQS
T1 sequence (P49336 whole entry): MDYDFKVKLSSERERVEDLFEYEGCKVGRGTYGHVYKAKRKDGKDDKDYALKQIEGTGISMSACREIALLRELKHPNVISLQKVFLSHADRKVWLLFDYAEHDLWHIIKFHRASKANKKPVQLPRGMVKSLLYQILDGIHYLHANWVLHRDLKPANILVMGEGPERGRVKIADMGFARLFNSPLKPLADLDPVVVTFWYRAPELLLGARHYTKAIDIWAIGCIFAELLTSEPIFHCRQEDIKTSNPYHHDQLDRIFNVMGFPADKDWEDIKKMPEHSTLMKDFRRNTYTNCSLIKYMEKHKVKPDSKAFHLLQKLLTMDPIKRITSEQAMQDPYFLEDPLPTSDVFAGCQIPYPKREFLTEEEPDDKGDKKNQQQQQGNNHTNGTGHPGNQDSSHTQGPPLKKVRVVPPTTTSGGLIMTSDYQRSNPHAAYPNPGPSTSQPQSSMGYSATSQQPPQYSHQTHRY
T1 sequence (P24863 whole entry partner): as the sequence (P24863 whole entry partner) above

Row | Compound | Percent inhibition of CDK8 activity (%) [1] | inhibition at 1 µM [2] | Percent inhibition of CDK19 activity (%) [3] | T/C (%) ([4]; 5 mg/kg, 1 dose per day) | T/C (%) ([4]; 15 mg/kg, 1 dose per day) | T/C (%) ([4]; 10 mg/kg, 1 dose per day) | T/C (%) ([4]; 15 mg/kg, 2 doses per day) | Percent inhibition of RPMI8226 cell growth (%) ([2]; 1 µM)
1 | Cc1c(Oc2sc(C(N)=O)c3c2-c2sncc2CC3)ccc[n+]1[O-] [Example 9, 8-((2-Methyl-1-oxidopyridin-3-yl)oxy)-4,5-dihydrothieno[3,4-g][1,2]benzothiazole-6-carboxamide] | 97% | 63% | 98% | 30% |  |  |  | 
2 | NC(=O)c1ccc(Oc2sc(C(N)=O)c3c2-c2sncc2CC3)cn1 [Example 13, 8-((6-Carbamoylpyridin-3-yl)oxy)-4,5-dihydrothieno[3,4-g][1,2]benzothiazole-6-carboxamide] | 97% | 69% | 98% |  | 50% |  |  | 
3 | COCCNC(=O)c1ccc(Oc2sc(C(N)=O)c3c2-c2sncc2CC3)cn1 [Example 18, 8-((6-((2-Methoxyethyl)carbamoyl)pyridin-3-yl)oxy)-4,5-dihydrothieno[3,4-g][1,2]benzothiazole-6-carboxamide] | 103% | 63% | 100% |  |  | 30% |  | 
4 | Cc1nc(C(=O)NCC(C)(C)O)ccc1Oc1sc(C(N)=O)c2c1-c1sncc1CC2 [Example 24, 8-((6-((2-Hydroxy-2-methylpropyl)carbamoyl)-2-methylpyridin-3-yl)oxy)-4,5-dihydrothieno[3,4-g][1,2]benzothiazole-6-carboxamide] | 102% | 64% | 99% |  |  | 32% |  | 
5 | Cc1nn(C)c(C)c1Oc1sc(C(N)=O)c2c1-c1sncc1CC2 [Example 32, 8-((1,3,5-Trimethyl-1H-pyrazol-4-yl)oxy)-4,5-dihydrothieno[3,4-g][1,2]benzothiazole-6-carboxamide] | 107% | 63% | 100% |  |  |  | 36% | 
6 | COCCNC(=O)c1ccc(Oc2sc(C(N)=O)c3c2-c2sncc2CC3)cn1 [Example 139, 8-((6-((2-Methoxyethyl)carbamoyl)pyridin-3-yl)oxy)-4,5-dihydrothieno[3,4-g][1,2]benzothiazole-6-carboxamide succinic acid (1:1)] | 103% |  | 100% |  |  |  |  | 71%
